Laboratory results taken from US20240415914A1, “Water Dispersible Cannabinoid Compositions” (priority 2021, published 2024).
Read-outs that look alike come from different tables or passages of the source.

Experiments:
[1] = type: physicochemical; details: stored at room temperature (21-25° C.)
Procedure: At each time period, 0.05 g of powder was dissolved in 10 ml-15 of ethanol, diluted to fall within the analytical range, and injected into the LCMSMS for analysis.

[2] = Stability of cannabinoid and Vitamin E components of Beverage 2 (AB Red) stored at 8° C. and 21-25° C., LCMSMS over 570 days

With `CCCCCc1cc(O)c2c(c1)OC(C)(C)c1ccc(C)cc1-2` [CBN, cannabinol] the “Stability in Powder Concentrate (content by LCMSMS)” value (“Stability in Powder Concentrate” for short) ([1]; day 0) was 0.480 mg/g powder, the “Stability in Powder Concentrate” value ([1]; day 1) was 0.471 mg/g powder and the “Stability in Powder Concentrate” value ([1]; day 2) was 0.488 mg/g powder. The “Stability in Powder Concentrate” value ([1]; day 3) was 0.474 mg/g powder, the “Stability in Powder Concentrate” value ([1]; day 5) was 0.491 mg/g powder and the “Stability in Powder Concentrate” value ([1]; day 8) was 0.469 mg/g powder. The “Stability in Powder Concentrate” value ([1]; day 9) was 0.466 mg/g powder, the “Stability in Powder Concentrate” value ([1]; day 10) was 0.499 mg/g powder and the “Stability in Powder Concentrate” value ([1]; day 11) was 0.494 mg/g powder. The “Stability in Powder Concentrate” value ([1]; day 12) was 0.496 mg/g powder, the “Stability in Powder Concentrate” value ([1]; day 15) was 0.472 mg/g powder and the “Stability in Powder Concentrate” value ([1]; day 16) was 0.483 mg/g powder. For the same compound, the “Stability in Powder Concentrate” value ([1]; day 17) was 0.465 mg/g powder, the “Stability in Powder Concentrate” value ([1]; day 18) was 0.470 mg/g powder and the “Stability in Powder Concentrate” value ([1]; day 19) was 0.490 mg/g powder. The “Stability in Powder Concentrate” value ([1]; day 22) was 0.486 mg/g powder, the “Stability in Powder Concentrate” value ([1]; day 23) was 0.469 mg/g powder and the “Stability in Powder Concentrate” value ([1]; day 24) was 0.465 mg/g powder. For the same compound, the “Stability in Powder Concentrate” value ([1]; day 25) was 0.486 mg/g powder, the “Stability in Powder Concentrate” value ([1]; day 26) was 0.486 mg/g powder and the “Stability in Powder Concentrate” value ([1]; day 29) was 0.484 mg/g powder. For the same compound, the “Stability in Powder Concentrate” value ([1]; day 30) was 0.476 mg/g powder, the “Stability in Powder Concentrate” value ([1]; day 60) was 0.489 mg/g powder and the “Stability in Powder Concentrate” value ([1]; day 90) was 0.483 mg/g powder. The “Stability in Powder Concentrate” value ([1]; day 120) was 0.498 mg/g powder, the “Stability in Powder Concentrate” value ([1]; day 150) was 0.500 mg/g powder and the “Stability in Powder Concentrate” value ([1]; day 180) was 0.464 mg/g powder. The “Stability in Powder Concentrate” value ([1]; day 210) was 0.501 mg/g powder, the “Stability in Powder Concentrate” value ([1]; day 240) was 0.467 mg/g powder and the “Stability in Powder Concentrate” value ([1]; day 270) was 0.464 mg/g powder. For the same compound, the “Stability in Powder Concentrate” value ([1]; day 300) was 0.469 mg/g powder, the “Stability in Powder Concentrate” value ([1]; day 330) was 0.502 mg/g powder and the “Stability in Powder Concentrate” value ([1]; day 360) was 0.499 mg/g powder. The “Stability in Powder Concentrate” value ([1]; day 390) was 0.479 mg/g powder, the “Stability in Powder Concentrate” value ([1]; day 420) was 0.481 mg/g powder and the “Stability in Powder Concentrate” value ([1]; day 450) was 0.480 mg/g powder. The “Stability in Powder Concentrate” value ([1]; day 480) was 0.485 mg/g powder, the “Stability in Powder Concentrate” value ([1]; day 510) was 0.499 mg/g powder and the “Stability in Powder Concentrate” value ([1]; day 540) was 0.492 mg/g powder. The “Stability in Powder Concentrate” value ([1]; day 570) was 0.471 mg/g powder, the “Stability of Cannabinoids in AB Red” value ([2]; 8° C., 0 days) was 2.81 µg/mL and the “Stability of Cannabinoids in AB Red” value ([2]; 8° C., 1 days) was 2.82 µg/mL. The “Stability of Cannabinoids in AB Red” value ([2]; 8° C., 2 days) was 2.74 µg/mL, the “Stability of Cannabinoids in AB Red” value ([2]; 8° C., 3 days) was 2.83 µg/mL and the “Stability of Cannabinoids in AB Red” value ([2]; 8° C., 5 days) was 2.78 µg/mL. For the same compound, the “Stability of Cannabinoids in AB Red” value ([2]; 8° C., 8 days) was 2.80 µg/mL, the “Stability of Cannabinoids in AB Red” value ([2]; 8° C., 9 days) was 2.74 µg/mL and the “Stability of Cannabinoids in AB Red” value ([2]; 8° C., 10 days) was 2.79 µg/mL. The “Stability of Cannabinoids in AB Red” value ([2]; 8° C., 11 days) was 2.73 µg/mL, the “Stability of Cannabinoids in AB Red” value ([2]; 8° C., 12 days) was 2.76 µg/mL and the “Stability of Cannabinoids in AB Red” value ([2]; 8° C., 15 days) was 2.77 µg/mL. For the same compound, the “Stability of Cannabinoids in AB Red” value ([2]; 8° C., 16 days) was 2.83 µg/mL, the “Stability of Cannabinoids in AB Red” value ([2]; 8° C., 17 days) was 2.80 µg/mL and the “Stability of Cannabinoids in AB Red” value ([2]; 8° C., 18 days) was 2.78 µg/mL. For the same compound, the “Stability of Cannabinoids in AB Red” value ([2]; 8° C., 19 days) was 2.78 µg/mL, the “Stability of Cannabinoids in AB Red” value ([2]; 8° C., 22 days) was 2.73 µg/mL and the “Stability of Cannabinoids in AB Red” value ([2]; 8° C., 23 days) was 2.79 µg/mL. For the same compound, the “Stability of Cannabinoids in AB Red” value ([2]; 8° C., 24 days) was 2.76 µg/mL, the “Stability of Cannabinoids in AB Red” value ([2]; 8° C., 25 days) was 2.83 µg/mL and the “Stability of Cannabinoids in AB Red” value ([2]; 8° C., 26 days) was 2.79 µg/mL. For the same compound, the “Stability of Cannabinoids in AB Red” value ([2]; 8° C., 29 days) was 2.77 µg/mL, the “Stability of Cannabinoids in AB Red” value ([2]; 8° C., 30 days) was 2.77 µg/mL and the “Stability of Cannabinoids in AB Red” value ([2]; 8° C., 60 days) was 2.73 µg/mL. For the same compound, the “Stability of Cannabinoids in AB Red” value ([2]; 8° C., 90 days) was 2.80 µg/mL, the “Stability of Cannabinoids in AB Red” value ([2]; 8° C., 120 days) was 2.69 µg/mL and the “Stability of Cannabinoids in AB Red” value ([2]; 8° C., 150 days) was 2.69 µg/mL. The “Stability of Cannabinoids in AB Red” value ([2]; 8° C., 180 days) was 2.74 µg/mL, the “Stability of Cannabinoids in AB Red” value ([2]; 8° C., 210 days) was 2.69 µg/mL and the “Stability of Cannabinoids in AB Red” value ([2]; 8° C., 240 days) was 2.74 µg/mL. The “Stability of Cannabinoids in AB Red” value ([2]; 8° C., 270 days) was 2.76 µg/mL, the “Stability of Cannabinoids in AB Red” value ([2]; 8° C., 300 days) was 2.75 µg/mL and the “Stability of Cannabinoids in AB Red” value ([2]; 8° C., 330 days) was 2.71 µg/mL. For the same compound, the “Stability of Cannabinoids in AB Red” value ([2]; 8° C., 390 days) was 2.72 µg/mL, the “Stability of Cannabinoids in AB Red” value ([2]; 8° C., 420 days) was 2.69 µg/mL and the “Stability of Cannabinoids in AB Red” value ([2]; 8° C., 450 days) was 2.71 µg/mL. For the same compound, the “Stability of Cannabinoids in AB Red” value ([2]; 8° C., 480 days) was 2.66 µg/mL, the “Stability of Cannabinoids in AB Red” value ([2]; 8° C., 510 days) was 2.62 µg/mL and the “Stability of Cannabinoids in AB Red” value ([2]; 8° C., 540 days) was 2.60 µg/mL. For the same compound, the “Stability of Cannabinoids in AB Red” value ([2]; 8° C., 570 days) was 2.58 µg/mL, the “Stability of Cannabinoids in AB Red” value ([2]; 21-25° C., 0 days) was 2.81 µg/mL and the “Stability of Cannabinoids in AB Red” value ([2]; 21-25° C., 1 days) was 2.73 µg/mL. For the same compound, the “Stability of Cannabinoids in AB Red” value ([2]; 21-25° C., 2 days) was 2.83 µg/mL, the “Stability of Cannabinoids in AB Red” value ([2]; 21-25° C., 3 days) was 2.78 µg/mL and the “Stability of Cannabinoids in AB Red” value ([2]; 21-25° C., 5 days) was 2.71 µg/mL. The “Stability of Cannabinoids in AB Red” value ([2]; 21-25° C., 8 days) was 2.74 µg/mL, the “Stability of Cannabinoids in AB Red” value ([2]; 21-25° C., 9 days) was 2.72 µg/mL and the “Stability of Cannabinoids in AB Red” value ([2]; 21-25° C., 10 days) was 2.73 µg/mL. For the same compound, the “Stability of Cannabinoids in AB Red” value ([2]; 21-25° C., 11 days) was 2.83 µg/mL, the “Stability of Cannabinoids in AB Red” value ([2]; 21-25° C., 12 days) was 2.70 µg/mL and the “Stability of Cannabinoids in AB Red” value ([2]; 21-25° C., 15 days) was 2.77 µg/mL. For the same compound, the “Stability of Cannabinoids in AB Red” value ([2]; 21-25° C., 16 days) was 2.81 µg/mL, the “Stability of Cannabinoids in AB Red” value ([2]; 21-25° C., 17 days) was 2.74 µg/mL and the “Stability of Cannabinoids in AB Red” value ([2]; 21-25° C., 18 days) was 2.80 µg/mL. The “Stability of Cannabinoids in AB Red” value ([2]; 21-25° C., 19 days) was 2.70 µg/mL, the “Stability of Cannabinoids in AB Red” value ([2]; 21-25° C., 22 days) was 2.70 µg/mL and the “Stability of Cannabinoids in AB Red” value ([2]; 21-25° C., 23 days) was 2.82 µg/mL. The “Stability of Cannabinoids in AB Red” value ([2]; 21-25° C., 24 days) was 2.78 µg/mL, the “Stability of Cannabinoids in AB Red” value ([2]; 21-25° C., 25 days) was 2.84 µg/mL and the “Stability of Cannabinoids in AB Red” value ([2]; 21-25° C., 26 days) was 2.70 µg/mL. For the same compound, the “Stability of Cannabinoids in AB Red” value ([2]; 21-25° C., 29 days) was 2.78 µg/mL, the “Stability of Cannabinoids in AB Red” value ([2]; 21-25° C., 30 days) was 2.77 µg/mL and the “Stability of Cannabinoids in AB Red” value ([2]; 21-25° C., 60 days) was 2.78 µg/mL. The “Stability of Cannabinoids in AB Red” value ([2]; 21-25° C., 90 days) was 2.75 µg/mL, the “Stability of Cannabinoids in AB Red” value ([2]; 21-25° C., 120 days) was 2.77 µg/mL and the “Stability of Cannabinoids in AB Red” value ([2]; 21-25° C., 150 days) was 2.75 µg/mL. For the same compound, the “Stability of Cannabinoids in AB Red” value ([2]; 21-25° C., 180 days) was 2.70 µg/mL, the “Stability of Cannabinoids in AB Red” value ([2]; 21-25° C., 210 days) was 2.70 µg/mL and the “Stability of Cannabinoids in AB Red” value ([2]; 21-25° C., 240 days) was 2.73 µg/mL. For the same compound, the “Stability of Cannabinoids in AB Red” value ([2]; 21-25° C., 270 days) was 2.73 µg/mL, the “Stability of Cannabinoids in AB Red” value ([2]; 21-25° C., 300 days) was 2.70 µg/mL and the “Stability of Cannabinoids in AB Red” value ([2]; 21-25° C., 330 days) was 2.75 µg/mL. For the same compound, the “Stability of Cannabinoids in AB Red” value ([2]; 21-25° C., 390 days) was 2.65 µg/mL, the “Stability of Cannabinoids in AB Red” value ([2]; 21-25° C., 420 days) was 2.64 µg/mL and the “Stability of Cannabinoids in AB Red” value ([2]; 21-25° C., 450 days) was 2.68 µg/mL. The “Stability of Cannabinoids in AB Red” value ([2]; 21-25° C., 480 days) was 2.58 µg/mL, the “Stability of Cannabinoids in AB Red” value ([2]; 21-25° C., 510 days) was 2.66 µg/mL and the “Stability of Cannabinoids in AB Red” value ([2]; 21-25° C., 540 days) was 2.65 µg/mL. The “Stability of Cannabinoids in AB Red” value ([2]; 21-25° C., 570 days) was 2.58 µg/mL.
